Common to all, as to type: cell-based
In experiment [1] the test system is Jurkat cells. Nature of the experiment: Cytosolic Ca2+ by flow cytometry with Rhod-4. The procedure:
Other characteristic phenomena of paraptosis such as a mitochondrial Ca^2+ overload and loss of mitochondrial membrane potential (ΔΨm) induced by CGP37157 were also examined. Intracellular Ca^2+ concentrations were measured by flow cytometry using red-emitting Ca^2+ probes, Rhod-2 (a mitochondrial Ca^2+ probe) and Rhod-4 (a cytosolic Ca^2+ probe). Jurkat cells were stained with Rhod-2/AM or Rhod-4/AM (at 5 μM) and then treated with CGP37157 (100 μM) or 4 (5 μM) for a given period of incubation, immediately after which the emission intensity of Rhod-2 and Rhod-4 was measured by flow cytometry. […]
In a 1.5 mL Eppendorf tube, Jurkat cells (2.0 × 10^5 cells) were incubated in the presence of Rhod-2/AM (5 μM, 100 μL) or Rhod-4/AM (5 μM, 100 μL) in 10% FBS/RPMI 1640 medium for 30 min at 37 °C under 5% CO2 and then treated with 4 (5 μM, 0–30 min) or CGP37157 (100 μM, 0–6 h) in 10% FBS/RPMI 1640 medium (100 μL) for 30 min at 37 °C under 5% CO2. Immediately after the treatment, 10% FBS/RPMI 1640 medium (300 μL) was added to the cells and the samples were analyzed on a flow cytometer (FACSCalibur cytometer, Becton). The data were analyzed on FlowJo software (FlowJo, LCC).
On the technique in general: In flow cytometry, cells or beads pass a laser one at a time.

For experiment [2], the system named is dynamin-related protein 1 (DRP1). Nature of the experiment: Western blot analysis of DRP1 in Jurkat cells. The procedure:
In a 1.5 mL Eppendorf tube, Jurkat cells (1.0 × 10^6 cells) were incubated in the presence of 4 ([…]), CGP37157 (100 μM for 0–24 h or 0–100 μM for 12 h), and celastrol (0–10 μM for 24 h or 1 μM for 0–24 h) at 37 °C under 5% CO2. After the cells had been washed twice with PBS, the proteins were extracted by using RIPA buffer (Nacalai Tesque) and quantified using a Pierce BCA Protein Assay Kit (Thermo Scientific). Proteins (7.5 μg/well) for MFNs and DRP1 and proteins (5.0 μg/well) for GAPDH were used for sodium dodecyl sulfate–polyacrylamide gel electrophoresis (SDS–PAGE) (7.5% for MFNs and DRP1 and 10% for GAPDH) (Bio-Rad). After SDS–PAGE, the proteins were transferred to a polyvinylidene fluoride membrane (Merck Millipore) by using a semi dry blotter (Bio-Rad). The membrane was blocked with Blocking One solution (Nacalai Tesque) for 30 min at room temperature. After being blocked, the membrane was washed three times with 1× TBST and treated with primary antibodies overnight (at a dilution of 1/1000 for MFNs and DRP1 or 1/2000 for GAPDH) in a signal enhancer HIKARI-solution A (Nacalai Tesque). The membrane was washed three times with 1× TBST and treated with the anti-mouse or anti-rabbit IgG HRP-conjugated secondary antibody (at a dilution of 1/4000 for MFNs and DRP1 or 1/10000 for GAPDH) in 1× TBST for 60 min at room temperature. The protein signal was spotted with a Chemi-Lumi One Ultra solution (Nacalai Tesque) using the ChemiDoc MP system (Bio-Rad).

Experiment [3] deals with Jurkat cells. The experiment in a line: TEM analysis of cytoplasmic vacuolization. The procedure: The morphological changes in Jurkat cells induced by CGP37157 (Figure 3B) were similar to those induced by 4 (Figure 1B) and confirmed in detail by TEM (transmission electron microscopy). Jurkat cells were treated with CGP37157 (100 μM) for 12 h, prefixed with glutaraldehyde and postfixed with osmium tetroxide (OsO4), and included in Poly 812 resin. The resulting samples were sliced and then observed by TEM. […] Similar TEM images were reported with respect to paraptosis-inducing natural compounds by some research groups: (i) paraptosis in MDA-MB 435S cells,[17] HeLa cells,[18] and Jurkat cells (Figure 4d and in our previous publications)[56]−[58] induced by celastrol, (ii) paraptosis in HeLa cells induced by 8-p-hydroxybenzoyl tovarol,[23] and (iii) paraptosis in A2780 cells and SKOV-3 cells induced by morusin.[22] Therefore, we believe that Jurkat cells undergo vacuolization in the paraptotic processes induced by 4 and CGP37157, as well as celastrol.
In a 1.5 mL Eppendorf tube, Jurkat cells (3.0 × 10^6 cells) were incubated with 4 (5 μM for 3 h), CGP37157 (100 μM for 12 h), and celastrol (1 μM for 24 h) in 10% FBS/RPMI 1640 medium at 37 °C under 5% CO2. After centrifugation (2000 rpm, 3 min, 4 °C), the cells were washed twice with PBS, prefixed with glutaraldehyde (2.5%) at 4 °C for 40 min, and then washed twice with PBS. Osmium tetroxide (1%) was used for postfixation, and the solution was incubated at 4 °C for 30 min. The cells were washed with PBS, included in an agarose gel, and dehydrated by using 50–100% and anhydrous EtOH. The cells were embedded into Poly 812 resin (Nisshin EM Co. Ltd.) at 60 °C for 3 days. The resin was sliced with a glass knife (150 nm thickness) on an ultramicrotome (EM UC6, Leica), and the samples were stained with EM stainer (Nisshin EM Co. Ltd.) and observed on TEM instrument (H-7650, Hitachi) with electron irradiation at 100 kV.

Residues, ends and D or L forms follow the SMILES beside them. *: point of attachment. X1 = O=C(COc1ccc(-c2ccccn2)cc1)NCCCCCCCCN*

In the case of `O=C1CSC(c2ccccc2Cl)c2cc(Cl)ccc2N1` (stereo not shown) [CGP37157], the “Emission of Rhod-4 (cytosolic Ca2+)” value in experiment [1] (CGP37157 100 μM, 1–6 h) is listed as “small emission enhancement”. In experiment [2] (CGP37157 100 μM, 1–6 h), the “Expression level of DRP1 (Figure 11B)” value is on record as “somewhat upregulated”. Further, the “DRP1 band intensity relative to absence of compound” value in experiment [2] (Figure S8B, CGP37157 10 µM, 12 h) is recorded as 1.6; in experiment [2] (Figure S8B, CGP37157 20 µM, 12 h), 1.7; in experiment [2] (Figure S8B, CGP37157 50 µM, 12 h), 1.3; in experiment [2] (Figure S8B, CGP37157 80 µM, 12 h) it was 1.4; in experiment [2] (Figure S8B, CGP37157 100 µM, 12 h) it was 0.89. Further, the “Morphological change by TEM” value in experiment [3] (CGP37157 100 μM, 12 h) is “cytoplasmic vacuolization”.
Turning to `NCCCC[C@H](NC(=O)[C@H](CCCCN)NC(=O)[C@@H](N)CCCCN)C(=O)NCC(=O)NCC(=O)NCCCCCCCCNC(=O)COc1ccc(-c2ccccn2)cc1` [compound 4] (H-KKKGG-X1), the “Emission of Rhod-4 (cytosolic Ca2+)” value in experiment [1] (4 at 5 μM, 10–30 min) is listed as “small emission enhancement”. Also, the “Expression level of DRP1 (Figure 11A)” value in experiment [2] (4 at 5 μM, 30 min to 1 h) is on record as “somewhat upregulated”. Also, the “DRP1 band intensity relative to absence of compound” value in experiment [2] (Figure S8A, 4 at 1 µM, 1 h per legend) amounted to 2.0; in experiment [2] (Figure S8A, 4 at 2.5 µM, 1 h per legend), 2.5; in experiment [2] (Figure S8A, 4 at 5 µM, 1 h per legend), 2.6; in experiment [2] (Figure S8A, 4 at 10 µM, 1 h per legend) it was 2.6; in experiment [2] (Figure S8A, 4 at 20 µM, 1 h per legend), 1.0. In addition, the “Morphological change by TEM” value in experiment [3] (4 at 5 μM, 3 h) was “cytoplasmic vacuolization”.

(Values after article PMC9022229, “Induction of Paraptosis by Cyclometalated Iridium Complex-Peptide Hybrids and CGP37157 via a Mitochondrial Ca^2+ Overload Triggered by Membrane Fusion between Mitochondria and the Endoplasmic Reticulum” (Biochemistry, 2022).)
